Publication PMC3268193 (British Journal of Pharmacology, 2012)

Experiments:
Format in all cases: cell-based
[1] = molecular target: T1, P2X2 receptor mutant X2-KLKML(2) (E134KD136K) (Homo sapiens, UniProt Q9UBL9, D148K/E146K); test: Two-electrode voltage clamp, P2X2 mutant X2-KLKML; conditions: double mutation E134KD136K
T1 sequence (Q9UBL9 1-471 E146K/D148K): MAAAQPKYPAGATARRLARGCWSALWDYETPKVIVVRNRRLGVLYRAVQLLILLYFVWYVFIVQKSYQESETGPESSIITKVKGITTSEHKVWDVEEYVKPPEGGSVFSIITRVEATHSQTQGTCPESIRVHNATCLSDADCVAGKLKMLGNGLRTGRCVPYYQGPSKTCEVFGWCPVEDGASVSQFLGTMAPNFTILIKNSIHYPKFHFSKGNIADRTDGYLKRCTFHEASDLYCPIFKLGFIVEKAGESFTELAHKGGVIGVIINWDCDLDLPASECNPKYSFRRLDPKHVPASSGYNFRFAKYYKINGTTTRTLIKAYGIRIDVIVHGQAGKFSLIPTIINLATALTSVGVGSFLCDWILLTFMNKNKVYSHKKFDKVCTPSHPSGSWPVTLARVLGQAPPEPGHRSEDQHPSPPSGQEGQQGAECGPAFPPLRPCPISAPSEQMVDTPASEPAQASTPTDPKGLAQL

[2] = molecular target: T2, P2X1 Cys2(1-6) chimera (Homo sapiens, UniProt P51575, A118P/A137L/A141G/A151Y/D154G/DEL120-123/E128S/F152Y/G124S/G131D/I144L/I161V/INS125RVHNAT/INS150P/K127L/K136E/K138D/K140L/K148R/N153Q/P134A/Q142N/R139M/S130A/T133V/T155P/V156S); test: Two-electrode voltage clamp, chimera P2X1 Cys2; conditions: P2X1 Cys2(1–6)
T2 sequence (P51575 with tags, fused parts or gaps A118P/DEL120-123/G124S/INS125RVHNAT/K127L/E128S/S130A/G131D/T133V/P134A/K136E/A137L/K138D/R139M/K140L/A141G/Q142N/I144L/K148R/INS150P/A151Y/F152Y/N153Q/D154G/T155P/V156S/I161V): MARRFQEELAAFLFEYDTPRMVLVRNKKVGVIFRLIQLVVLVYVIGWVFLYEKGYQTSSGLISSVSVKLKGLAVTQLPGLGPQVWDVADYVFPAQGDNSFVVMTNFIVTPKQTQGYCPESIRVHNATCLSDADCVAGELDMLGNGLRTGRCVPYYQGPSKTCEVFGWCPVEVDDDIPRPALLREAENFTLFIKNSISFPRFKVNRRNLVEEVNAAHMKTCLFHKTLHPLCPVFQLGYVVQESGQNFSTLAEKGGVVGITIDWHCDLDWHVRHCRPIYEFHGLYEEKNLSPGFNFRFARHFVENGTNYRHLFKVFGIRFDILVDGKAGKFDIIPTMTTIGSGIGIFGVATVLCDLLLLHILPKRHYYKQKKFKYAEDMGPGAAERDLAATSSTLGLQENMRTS

[3] = molecular target: T3, P2X1 Cys2(3-4) chimera (Homo sapiens, UniProt P51575, A137L/A141G/I144L/K136E/K138D/K140L/K148R/P134A/Q142N/R139M/T133V); test: Two-electrode voltage clamp, chimera P2X1 Cys2
T3 sequence (P51575 1-399 T133V/P134A/K136E/A137L/K138D/R139M/K140L/A141G/Q142N/I144L/K148R): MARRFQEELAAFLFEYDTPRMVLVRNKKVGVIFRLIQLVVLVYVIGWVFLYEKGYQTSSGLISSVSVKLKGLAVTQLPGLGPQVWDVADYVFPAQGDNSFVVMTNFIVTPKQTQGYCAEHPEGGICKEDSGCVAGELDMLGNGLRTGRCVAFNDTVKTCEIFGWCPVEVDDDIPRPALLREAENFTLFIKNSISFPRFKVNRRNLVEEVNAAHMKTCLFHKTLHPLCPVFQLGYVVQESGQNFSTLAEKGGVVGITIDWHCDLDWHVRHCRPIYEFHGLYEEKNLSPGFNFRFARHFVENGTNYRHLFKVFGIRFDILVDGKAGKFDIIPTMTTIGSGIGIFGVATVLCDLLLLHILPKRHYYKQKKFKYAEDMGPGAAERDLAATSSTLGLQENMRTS

| Compound | Increase in suramin sensitivity compared with WT P2X2 [1] [fold] | Reduction in NF449 sensitivity compared with P2X1 WT [2] [fold] | Hill slope of NF449 inhibition curve ([2]; vs EC90 ATP) | Decrease in NF449 sensitivity compared with P2X1 WT [3] [fold] |
| --- | --- | --- | --- | --- |
| Cc1ccc(C(=O)Nc2ccc(S(=O)(=O)O)c3cc(S(=O)(=O)O)cc(S(=O)(=O)O)c23)cc1NC(=O)c1cccc(NC(=O)Nc2cccc(C(=O)Nc3cc(C(=O)Nc4ccc(S(=O)(=O)O)c5cc(S(=O)(=O)O)cc(S(=O)(=O)O)c45)ccc3C)c2)c1 [suramin] | 10 |  |  |  |
| O=C(Nc1cc(C(=O)Nc2ccc(S(=O)(=O)O)cc2S(=O)(=O)O)cc(C(=O)Nc2ccc(S(=O)(=O)O)cc2S(=O)(=O)O)c1)Nc1cc(C(=O)Nc2ccc(S(=O)(=O)O)cc2S(=O)(=O)O)cc(C(=O)Nc2ccc(S(=O)(=O)O)cc2S(=O)(=O)O)c1 [NF449, 4,4′,4′′,4′′′-(carbonylbis(imino-5,1,3-benzenetriyl-bis(carbonylimino)))tetrakis-benzene-1,3-disulphonic acid] |  | ~300 | 1.38 ± 0.07 | ~1700 |
